Measurements: US20210077420A1, “Methods of Treatment of Gout” (priority 2017, published 2021)

Tests used:
Type in all cases: physicochemical
[1] = Solubility enhancement of MSU crystals in phosphate buffered saline (Examples 2A, 2B); conditions: Table 3
[2] = as above
Protocol: A phosphate buffered saline diluent was prepared by dissolving 8.2 g of NaCl and 0.68 g of KH2PO4 in 500 mL of deionised water in a 1 L flask. An NaOH solution was prepared by dissolving 0.399 g of NaOH in 100 mL of deionised water. 39.1 mL of the 0.1 M NaOH solution was then added to the 1 L flask and the volume was made up to 1 L with deionised water. The pH was adjusted to 7.4.
Approximately 5 mg of monosodium urate crystals was then suspended in 4.75 mL of the phosphate buffered saline diluent. A 0.25 mL amount of a solubility enhancer was then added to the suspension of monosodium urate crystals. […] In the case of the solubility enhancer being a mix of components, equal portions by volume of each component was added, unless indicated otherwise. This was then stirred for about 16 hours.
A sample of the supernatant was then taken, filtered using standard techniques (e.g. a syringe filter), and analysed by high-performance liquid chromatography (HPLC) to determine the concentration of uric acid/urate present in solution.

[3] = Solubility enhancement of MSU crystals in aqueous NaCl solution (Example 1); conditions: 16 h; for % vs control: 2.5 mL enhancer + 2.5 mL NaCl solution, control (water only) = 100%; for Concentration of urate: 2.5 mL enhancer + 2.5 mL NaCl solution (8.2 g/L), about 8 mg MSU, 25 °C, mixes equal portions by volume, control 0.043
Protocol: A NaCl solution was prepared by dissolving 8.2 g of NaCl in 1 L of deionised water. Approximately 8 mg of monosodium urate crystals was then suspended in 2.5 mL of the NaCl solution. A 2.5 mL amount of a solubility enhancer was then added to the suspension of monosodium urate crystals. In the case of the solubility enhancer being a mix of components, equal portions by volume of each component was added. This was then mixed for about 16 hours on a roller mixer.
A sample of the supernatant was then taken, filtered using standard techniques (e.g. a syringe filter), and analysed by high-performance liquid chromatography (HPLC) to determine the concentration uric acid/MSU present in solution.
All samples were analysed using a HPLC system equipped with a variable wavelength UV detector and a reversed phase column (5 μm ODS2, 4.6 mm×150 mm, Waters Spherisorb). The mobile phase was 35 mM sodium acetate in water with pH adjusted to 5.0 using acetic acid. The flow rate was set at 1 mL/min and UV detection at a wavelength of 292 nm. Sample injection volume was 50.0 μL and all operations were carried out at 25° C. Standard solutions of MSU were made up in the range of 15-250 μg/mL and analysed as above.

[4] = 0.1% solubility enhancer in PBS
[5] = Table 3, 5% by volume solubility enhancer in PBS
[6] = Table 2, 5% by volume solubility enhancer in PBS pH 7.4, control = 100%

With `O=C(O)c1ccccc1` [Benzoic acid] the “% vs control” value [1, 4] was 147%, the “% vs control” value ([1]; 1% solubility enhancer in PBS) was 159% and the “% vs control” value [2, 5] was 189%.
With `OCc1ccccc1` [Benzyl alcohol] the “% vs control” value ([1]; 0.5% solubility enhancer in PBS) was 152%, the “% vs control” value ([1]; 2% solubility enhancer in PBS) was 170% and the “% vs control” value ([1]; 3% solubility enhancer in PBS) was 197%. The “% vs control” value ([1]; 4% solubility enhancer in PBS) was 227% and the “% vs control” value [2, 6] was 263%.
With `CCCCCCCC/C=C\CCCCCCCC(=O)O` [Oleic acid] the “% vs control” value ([1]; 1% solubility enhancer in PBS) was 118% and the “% vs control” value ([1]; 2% solubility enhancer in PBS) was 119%.
With `CCCCCCCC/C=C\CCCCCCCC(=O)OC` [Methyl oleate] the “% vs control” value [2, 6] was 119%.
With `CC(=O)OCC(COC(C)=O)OC(C)=O` [Triacetin] the “% vs control” value ([1]; 4% solubility enhancer in PBS) was 111%, the “% vs control” value [2, 6] was 165% and the “% vs control” value [2, 5] was 113%.
In the case of `OCCO` [Ethylene glycol], the “% vs control” value [2, 6] is reported as 112%.
With `OCC(O)CO` [Glycerol] the “% vs control” value [2, 6] was 114% and the “% vs control” value [3] was 149%.
For `O=C(O)/C=C/C(=O)O` [Fumaric acid], the “% vs control” value [3] was 151%.
For `CC(O)CO` (centres unmarked) [Propylene glycol], the “% vs control” value [2, 6] was 114% and the “% vs control” value [3] was 114%.
In the case of `CN1CCCC1=O` [N-methylpyrrolidone], the “% vs control” value [3] is reported as 200%.
For `OCc1ccc(O)cc1` [4-hydroxybenzyl alcohol], the “% vs control” value ([1]; 1% solubility enhancer in PBS) was 151% and the “% vs control” value [2, 5] was 190%.
With `O=C(O)c1ccccc1O` [Salicylic acid] the “% vs control” value [1, 4] was 281%.
For `CC(=O)OC/C=C(\C)CCC=C(C)C` [Geranyl acetate], the “% vs control” value [3] was 209%.
For Sorbitan monooleate, the Concentration of urate [3] was 65 µg/mL and the “% vs control” value [3] was 151%.
In the case of `O=C(O)c1ccc(O)cc1` [4-hydroxybenzoic acid], the “% vs control” value ([1]; 0.05% solubility enhancer in PBS) is reported as 160%, the “% vs control” value [1, 4] is reported as 193% and the “% vs control” value ([1]; 1% solubility enhancer in PBS) is reported as 205%. For the same compound, the “% vs control” value [2, 5] was 241%.
With Span 85 the Concentration of urate [3] was 57 µg/mL.
